Laboratory results from US12398154B2, “Azaquinazoline pan-KRas inhibitors” (Mirati Therapeutics, Inc., priority 2020, dated 2025).

Legend:
KRas G12D = KRas G12D (Homo sapiens, UniProt P01116, G12D); assay: biochemical;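 further: TR-FRET displacement binding assay on KRas, read after a one-hour incubation at room temperature, IC50 fitted from percent-of-control values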
Method: (§1) The ability of a compound to bind to KRas was measured using a TR-FRET displacement assay. […] After a 60-minute incubation at room temperature, the reaction was measured using a BMG LABTECH CLARIO star Plus via TR-FRET. […] The POC values were fit to a 4-parameter IC50 equation and the IC50 value reported.

KRas G12V = KRas G12V (Homo sapiens, UniProt P01116, G12V); assay: biochemical;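 further: KRas binding measured by TR-FRET displacement at room temperature, IC50 fitted from percent of control values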
Method: as §1

KRas G12R = KRas G12R (Homo sapiens, UniProt P01116, G12R); assay: biochemical;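 further: TR-FRET displacement assay of compound binding to KRas, read after one hour at room temperature, potency from a four-parameter fit of percent-of-control values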
Method: as §1

pERK in MKN1 cells = assay: Inhibition of KRas phosphorylation of ERK (Cisbio HTRF pERK assay); conditions: Homo sapiens, MKN-1, 3 h, read-out: Inhibition (HTRF IC50) of KRas-mediated Phosphorylation of ERK, MKN1
pERK in PSN1 cells = assay: as above; conditions: Homo sapiens, PSN1, 3 h, read-out: Inhibition (HTRF IC50) of KRas-mediated Phosphorylation of ERK, PSN1
pERK in ASPC1 cells = assay: as above; conditions: Homo sapiens, ASPC1, read-out: Inhibition (HTRF IC50) of KRas-mediated Phosphorylation of ERK, AsPC-1
pERK in H727 cells = assay: as above; conditions: Homo sapiens, NCI-H727, read-out: Inhibition (HTRF IC50) of KRas-mediated Phosphorylation of ERK, H727
pERK in A549 cells = assay: as above; conditions: Homo sapiens, A549, read-out: Inhibition (HTRF IC50) of KRas-mediated Phosphorylation of ERK, A549
pERK in H460 cells = assay: as above; conditions: Homo sapiens, NCI-H460, read-out: Inhibition (HTRF IC50) of KRas-mediated Phosphorylation of ERK, H460
pERK in HCT116 cells = assay: as above; conditions: Homo sapiens, HCT-116, read-out: Inhibition (HTRF IC50) of KRas-mediated Phosphorylation of ERK, HCT116
pERK in H358 cells = assay: as above; conditions: Homo sapiens, NCI-H358, read-out: Inhibition (HTRF IC50) of KRas-mediated Phosphorylation of ERK, H358

Sequence of KRas G12D (P01116 1-169 isoform P01116-2 G12D): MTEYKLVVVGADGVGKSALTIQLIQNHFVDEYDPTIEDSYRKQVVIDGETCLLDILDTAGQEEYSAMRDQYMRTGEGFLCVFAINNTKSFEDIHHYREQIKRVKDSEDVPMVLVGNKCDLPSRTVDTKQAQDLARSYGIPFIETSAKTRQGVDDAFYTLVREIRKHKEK
Sequence of KRas G12V (P01116 1-169 isoform P01116-2 G12V): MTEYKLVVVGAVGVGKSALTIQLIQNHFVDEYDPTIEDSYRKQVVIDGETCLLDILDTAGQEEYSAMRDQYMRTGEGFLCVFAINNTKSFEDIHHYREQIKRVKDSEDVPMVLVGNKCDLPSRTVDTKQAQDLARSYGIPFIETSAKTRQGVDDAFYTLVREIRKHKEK
Sequence of KRas G12R (P01116 1-169 isoform P01116-2 G12R): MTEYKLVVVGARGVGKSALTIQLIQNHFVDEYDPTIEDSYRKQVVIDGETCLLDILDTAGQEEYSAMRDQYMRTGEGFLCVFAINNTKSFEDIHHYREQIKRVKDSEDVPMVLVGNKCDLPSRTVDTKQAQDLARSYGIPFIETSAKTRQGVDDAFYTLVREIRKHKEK

Row | IC50 (KRas G12D) [nM] | IC50 (KRas G12V) [nM] | IC50 (KRas G12R) [nM] | IC50 (pERK in MKN1 cells) [nM] | IC50 (pERK in PSN1 cells) [nM] | IC50 (pERK in ASPC1 cells) [nM] | IC50 (pERK in H727 cells) [nM] | IC50 (pERK in A549 cells) [nM] | IC50 (pERK in H460 cells) [nM] | IC50 (pERK in HCT116 cells) [nM] | IC50 (pERK in H358 cells) [nM] | Structure (SMILES)
1 | ≤ 2 | ≤ 2 | ≤ 2 | 40 | 9300 | 16 | 63 | 232 | 458 | 767 | 20 | CCNC(=O)c1cc2n(n1)CCCN(c1nc(OC[C@@]34CCCN3C[C@H](F)C4)nc3c(F)c(-c4cc(O)cc5ccc(F)c(CC)c45)ncc13)C2 [Example 356, N-ethyl-5-(7-(8-ethyl-7-fluoro-3-hydroxynaphthalen-1-yl)-8-fluoro-2-(((2R,7aS)-2-fluorohexahydro-1H-pyrrolizin-7a-yl)methoxy)pyrido[4,3-d]pyrimidin-4-yl)-5,6,7,8-tetrahydro-4H-pyrazolo[1,5-a][1,4]diazepine-2-carboxamide]
2 | ≤ 2 | ≤ 2 | ≤ 2 | 71 | 7480 | 13 | 63 | 576 | 805 | 1350 | 27 | CCc1c(F)ccc2cc(O)cc(-c3ncc4c(N5CCCn6nc(C(=O)NC(C)C)cc6C5)nc(OC[C@@]56CCCN5C[C@H](F)C6)nc4c3F)c12 [Example 357, 5-(7-(8-ethyl-7-fluoro-3-hydroxynaphthalen-1-yl)-8-fluoro-2-(((2R,7aS)-2-fluorohexahydro-1H-pyrrolizin-7a-yl)methoxy)pyrido[4,3-d]pyrimidin-4-yl)-N-isopropyl-5,6,7,8-tetrahydro-4H-pyrazolo[1,5-a][1,4]diazepine-2-carboxamide]
3 | ≤ 2 | ≤ 2 | ≤ 2 | 4 | 9770 | 12 | 15 | 44 | 131 | 167 | 3 | CCc1c(F)ccc2cc(O)cc(-c3ncc4c(N5CCCn6nc(C(=O)N(C)CC)cc6C5)nc(OC[C@@]56CCCN5C[C@H](F)C6)nc4c3F)c12 [Example 358, N-ethyl-5-(7-(8-ethyl-7-fluoro-3-hydroxynaphthalen-1-yl)-8-fluoro-2-(((2R,7aS)-2-fluorotetrahydro-1H-pyrrolizin-7a(5H)-yl)methoxy)pyrido[4,3-d]pyrimidin-4-yl)-N-methyl-5,6,7,8-tetrahydro-4H-pyrazolo[1,5-a][1,4]diazepine-2-carboxamide]
4 | ≤ 2 | ≤ 2 | ≤ 2 | 3 | 6820 | 8 | 49 | 122 | 85 | 231 | 17 | CCc1c(F)ccc2cc(O)cc(-c3ncc4c(N5CCOC[C@@](C)(O)C5)nc(OCC5(CN(C)C)CC5)nc4c3F)c12 [Example 361, (S)-4-(2-((1-((dimethylamino)methyl)cyclopropyl)methoxy)-7-(8-ethyl-7-fluoro-3-hydroxynaphthalen-1-yl)-8-fluoropyrido[4,3-d]pyrimidin-4-yl)-6-methyl-1,4-oxazepan-6-ol]

The remaining lines, values behind:

Row | Structure (SMILES) | IC50 (KRas G12D) [nM] | IC50 (KRas G12V) [nM] | IC50 (KRas G12R) [nM] | IC50 (pERK in MKN1 cells) [nM] | IC50 (pERK in PSN1 cells) [nM] | IC50 (pERK in ASPC1 cells) [nM] | IC50 (pERK in H727 cells) [nM] | IC50 (pERK in A549 cells) [nM] | IC50 (pERK in H460 cells) [nM] | IC50 (pERK in HCT116 cells) [nM] | IC50 (pERK in H358 cells) [nM]
5 | CCc1c(F)ccc2cc(O)cc(-c3ncc4c(N5CCCn6nc(NC)cc6C5)nc(OC[C@@]56CCCN5C[C@H](F)C6)nc4c3F)c12 [Example 340, 5-ethyl-6-fluoro-4-(8-fluoro-2-(((2R,7aS)-2-fluorohexahydro-1H-pyrrolizin-7a-yl)methoxy)-4-(2-(methylamino)-7,8-dihydro-4II-pyrazolo[1,5-a][1,4]diazepin-5(6H)-yl)pyrido[4,3-d]pyrimidin-7-yl)naphthalen-2-ol] | ≤ 2 | ≤ 2 | ≤ 2 | 26 | ≥ 10000 | 39 | 149 | 353 | 373 | 999 | 55
6 | CCc1c(F)ccc2cc(O)cc(-c3ncc4c(N5CCCSCC5)nc(OC[C@@]56CCCN5C[C@H](F)C6)nc4c3F)c12 [Example 342, 5-ethyl-6-fluoro-4-(8-fluoro-2-(((2R,7aS)-2-fluorohexahydro-1H-pyrrolizin-7a-yl)methoxy)-4-(1,4-thiazepan-4-yl)pyrido[4,3-d]pyrimidin-7-yl)naphthalen-2-ol] | 3 | ≤ 2 | ≤ 2 | 4 | 2240 | 23 | 46 | 167 | 203 | 470 | 62
7 | CCc1c(F)ccc2cc(O)cc(-c3ncc4c(N5CCCOC(CO)C5)nc(OC[C@@]56CCCN5C[C@H](F)C6)nc4c3F)c12 (stereo partly drawn) [Example 343, 5-ethyl-6-fluoro-4-(8-fluoro-2-(((2R,7aS)-2-fluorotetrahydro-1H-pyrrolizin-7a(5H)-yl)methoxy)-4-(2-(hydroxymethyl)-1,4-oxazepan-4-yl)pyrido[4,3-d]pyrimidin-7-yl)naphthalen-2-ol] | ≤ 2 | ≤ 2 | ≤ 2 | 4 | 5930 | 60 | 24 | 91 | 128 | 128 | 7
8 | CCc1c(F)ccc2cc(O)cc(-c3ncc4c(N5CCCc6nn(C(=O)N(C)C)cc6C5)nc(OC[C@@]56CCCN5C[C@H](F)C6)nc4c3F)c12 [Example 353, 5-(7-(8-ethyl-7-fluoro-3-hydroxynaphthalen-1-yl)-8-fluoro-2-(((2R,7aS)-2-fluorohexahydro-1H-pyrrolizin-7a-yl)methoxy)pyrido[4,3-d]pyrimidin-4-yl)-N,N-dimethyl-5,6,7,8-tetrahydropyrazolo[4,3-c]azepine-2(4H)-carboxamide] | ≤ 2 | ≤ 2 | ≤ 2 | 24 | 4810 | 7 | 34 | 80 | 149 | 396 | 19
9 | CCc1c(F)ccc2cc(O)cc(-c3ncc4c(N5CCCn6nc(C(=O)N7CCOCC7)cc6C5)nc(OC[C@@]56CCCN5C[C@H](F)C6)nc4c3F)c12 [Example 354, (5-(7-(8-ethyl-7-fluoro-3-hydroxynaphthalen-1-yl)-8-fluoro-2-(((2R,7aS)-2-fluorohexahydro-1H-pyrrolizin-7a-yl)methoxy)pyrido[4,3-d]pyrimidin-4-yl)-5,6,7,8-tetrahydro-4H-pyrazolo[1,5-a][1,4]diazepin-2-yl)(morpholino)methanone] | ≤ 2 | ≤ 2 | ≤ 2 | 14 | ≥ 10000 | 14 | 48 | 65 | 304 | 623 | 17
10 | CCc1c(F)ccc2cc(O)cc(-c3ncc4c(N5CCCn6nc(C(=O)N7CCCC7)cc6C5)nc(OC[C@@]56CCCN5C[C@H](F)C6)nc4c3F)c12 [Example 355, (5-(7-(8-ethyl-7-fluoro-3-hydroxynaphthalen-1-yl)-8-fluoro-2-(((2R,7aS)-2-fluorohexahydro-1H-pyrrolizin-7a-yl)methoxy)pyrido[4,3-d]pyrimidin-4-yl)-5,6,7,8-tetrahydro-4H-pyrazolo[1,5-a][1,4]diazepin-2-yl)(pyrrolidin-1-yl)methanone] | ≤ 2 | ≤ 2 | ≤ 2 | 17 | 6770 | 8 | 30 | 140 | 270 | 471 | 16
